Laboratory results from patent US20230135093A1, “TRIAZOLYL DERIVATIVES AS GABA A ALPHA5 PAM” (Hoffmann-La Roche Inc., priority 2020, published 2023).

Tests used:
h-GABA-A α5β3γ2 [1] = biological target: T1, h-GABA-A α5β3γ2 (Homo sapiens, UniProt P18507+P31644); test: [3H]flumazenil competition binding assay on membranes of HEK293 cells expressing GABAA receptors; details: Table 1; displacement of [3H]-Flumazenil (0.5 nM), HEK293 cells expressing human receptors, means of two determinations
T1 construct: expressed in transfected cells; host or cells: Xenopus laevis oocytes, micro-injected with subunit RNA
Procedure, shortened: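 Competition for [3H]flumazenil (0.5 nM for α5 subunits) was measured at equilibrium (1 h, 4 °C, Krebs-tris buffer pH 7.5) on transiently transfected HEK293 membranes bearing human α5β3γ2 receptors, with 10^−5 M diazepam defining nonspecific binding. Ki values were derived from filtration and scintillation counting, averaged over duplicates.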

h-GABA-A α5β3γ2 [2] = biological target: T1, h-GABA-A α5β3γ2; test: Two-electrode voltage clamp electrophysiology in Xenopus oocytes expressing GABAA receptors (modulation of GABA EC20 current); assay type: cell-based; details: Table 1; for Efficacy (GABA) %: % modulation of GABA EC20 = 100*(Fold increase-1); for Fold increase h-GABA-A α5β3γ2 oocyte: Xenopus oocytes, GABA EC20, test compound at approximatively 30 fold its Ki
Procedure, shortened: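 GABA EC20 currents in human α5β3γ2-expressing Xenopus oocytes, voltage-clamped at −80 mV (room temperature, pH 7.4), measured with and without compound at ~30× Ki applied 0.5 min into the second GABA pulse. % modulation = 100×(fold increase−1), taken from the extremum of the current ratio trace; at least 3 oocytes per concentration.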

SMILES | Ki (h-GABA-A α5β3γ2 [1]) [nM] | Efficacy (GABA) % (h-GABA-A α5β3γ2 [2]) [%] | Fold increase h-GABA-A α5β3γ2 oocyte (h-GABA-A α5β3γ2 [2])
CCOC1CN(c2cnn(Cc3c(-c4ccc(Cl)cc4)nnn3C)c(=O)c2)C1 [Example 41, 2-[[5-(4-chlorophenyl)-3-methyl-triazol-4-yl]methyl]-5-(3-ethoxyazetidin-1-yl)pyridazin-3-one] | 37.7 | 47 | 1.47
CC(C)O[C@@H]1CCN(c2cnn(Cc3c(-c4ccc(Cl)cc4F)nnn3C)c(=O)c2)C1 [Example 42, 2-((5-(4-chloro-2-fluoro-phenyl)-3-methyl-triazol-4-yl)methyl)-5-((3R)-3-isopropoxy-pyrrolidin-1-yl)pyridazin-3-one] | 18.3 | 71 | 1.71
Cn1nnc(-c2ccc(Cl)cc2F)c1Cn1ncc(N2CC(Oc3ccccn3)C2)cc1=O [Example 43, 2-((5-(4-chloro-2-fluoro-phenyl)-3-methyl-triazol-4-yl)methyl)-5-(3-(2-pyridyl-oxy)azetidin-1-yl)pyridazin-3-one] | 7.9 | 97 | 1.97
CC(C)N1CCN(c2cnn(Cc3c(-c4ccc(Cl)cc4F)nnn3C)c(=O)c2)C[C@@H]1C [Example 44, 2-((5-(4-chloro-2-fluoro-phenyl)-3-methyl-triazol-4-yl)methyl)-5-((3S)-4-isopropyl-3-methyl-piperazin-1-yl)pyridazin-3-one] | 4.4 | 82 | 1.82
C[C@H]1CN(c2cnn(Cc3c(-c4ccc(Cl)cc4F)nnn3C)c(=O)c2)CCO1 [Example 45, 2-((5-(4-chloro-2-fluoro-phenyl)-3-methyl-triazol-4-yl)methyl)-5-((2S)-2-methylmorpholin-4-yl)pyridazin-3-one] | 1.4 | 115 | 2.15
C[C@@H]1CN(c2cnn(Cc3c(-c4ccc(Cl)cc4F)nnn3C)c(=O)c2)CCO1 [Example 46, 2-((5-(4-chloro-2-fluoro-phenyl)-3-methyl-triazol-4-yl)methyl)-5-((2R)-2-methylmorpholin-4-yl)pyridazin-3-one] | 1.6 | 86 | 1.86
CCc1nccn1C1CCN(c2cnn(Cc3c(C)nnn3-c3ccc(Cl)cc3F)c(=O)c2)CC1 [Example 47, 2-[[3-(4-chloro-2-fluoro-phenyl)-5-methyl-triazol-4-yl]methyl]-5-[4-(2-ethylimidazol-1-yl)-1-piperidyl]pyridazin-3-one] | 13.2 | 130 | 2.3
CC(C)OC1CN(c2cnn(Cc3c(-c4ccc(Cl)cc4F)nnn3C)c(=O)c2)C1 [Example 48, 2-((5-(4-chloro-2-fluoro-phenyl)-3-methyl-triazol-4-yl)methyl)-5-(3-isopropoxyazetidin-1-yl)pyridazin-3-one] | 8.5 | 52 | 1.52
Cn1nnc(-c2ccc(Cl)cc2F)c1Cn1ncc(N2CC(OC3CCC3)C2)cc1=O [Example 49, 2-((5-(4-chloro-2-fluoro-phenyl)-3-methyl-triazol-4-yl)methyl)-5-(3-(cyclobutoxy)azetidin-1-yl)pyridazin-3-one] | 8.3 | 73 | 1.73
Cn1nnc(-c2ccc(Cl)cc2F)c1Cn1ncc(N2CC(OCC(F)(F)F)C2)cc1=O [Example 50, 2-((5-(4-chloro-2-fluoro-phenyl)-3-methyl-triazol-4-yl)methyl)-5-(3-(2,2,2-trifluoro-ethoxy)azetidin-1-yl)pyridazin-3-one] | 5.2 | 67 | 1.67
CCCOC1CN(c2cnn(Cc3c(-c4ccc(Cl)cc4F)nnn3C)c(=O)c2)C1 [Example 51, 2-((5-(4-chloro-2-fluoro-phenyl)-3-methyl-triazol-4-yl)methyl)-5-(3-propoxyazetidin-1-yl)pyridazin-3-one] | 21.4 | 94 | 1.94
Cn1nnc(-c2ccc(Cl)cc2F)c1Cn1ncc(N2CC(Oc3ccc(Cl)nc3)C2)cc1=O [Example 52, 2-[[5-(4-chloro-2-fluoro-phenyl)-3-methyl-triazol-4-yl]methyl]-5-[3-[(6-chloro-3-pyridyl)oxy]azetidin-1-yl]pyridazin-3-one] | 4.1 | 55 | 1.55
Cn1nnc(-c2ccc(Cl)cc2F)c1Cn1ncc(N2CC(OC(F)F)C2)cc1=O [Example 53, 2-((5-(4-chloro-2-fluoro-phenyl)-3-methyl-triazol-4-yl)methyl)-5-(3-(difluoromethoxy)azetidin-1-yl)pyridazin-3-one] | 5.4 | 69 | 1.69
Cn1nnc(-c2ccc(Cl)cc2F)c1Cn1ncc(N2CC(OCC(F)F)C2)cc1=O [Example 54, 2-[[5-(4-chloro-2-fluoro-phenyl)-3-methyl-triazol-4-yl]methyl]-5-[3-(2,2-difluoro-ethoxy)azetidin-1-yl]pyridazin-3-one] | 6.4 | 82 | 1.82
Cn1nnc(-c2ccc(Cl)cc2F)c1Cn1ncc(N2CC(Oc3ccnc(Cl)c3)C2)cc1=O [Example 55, 2-[[5-(4-chloro-2-fluoro-phenyl)-3-methyl-triazol-4-yl]methyl]-5-[3-[(2-chloro-4-pyridyl)oxy]azetidin-1-yl]pyridazin-3-one] | 5.8 | 111 | 2.11
COc1ccc(-c2cnn(Cc3c(C)nnn3-c3ccc(Cl)cc3F)c(=O)c2)cc1 [Example 56, 2-((3-(4-chloro-2-fluoro-phenyl)-5-methyl-triazol-4-yl)methyl)-5-(4-methoxyphenyl)pyridazin-3-one] | 21.6 | 50 | 1.5
Cc1nnn(-c2ccc(Cl)cc2F)c1Cn1ncc(-c2ccnc(C(F)(F)F)c2)cc1=O [Example 57, 2-((3-(4-chloro-2-fluoro-phenyl)-5-methyl-triazol-4-yl)methyl)-5-(2-(trifluoromethyl)-4-pyridyl)pyridazin-3-one] | 43 | 64 | 1.64
C[C@@H]1CN(c2cnn(Cc3c(-c4ccc(F)cc4F)nnn3C)c(=O)c2)C[C@H](C)O1 [Example 58, 2-[[5-(2,4-difluorophenyl)-3-methyl-triazol-4-yl]methyl]-5-[(2R,6S)-2,6-dimethylmorpholin-4-yl]pyridazin-3-one] | 7 | 138 | 2.38
Cn1nnc(-c2ccc(Cl)cc2)c1Cn1ncc(N2CC(OCC(F)(F)F)C2)cc1=O [Example 59, 2-[[5-(4-chlorophenyl)-3-methyl-triazol-4-yl]methyl]-5-[3-(2,2,2-trifluoro-ethoxy)azetidin-1-yl]pyridazin-3-one] | 37.1 | 81 | 1.81
Cn1nnc(-c2ccc(Cl)cc2)c1Cn1ncc(N2CC(OCC(F)F)C2)cc1=O [Example 60, 2-[[5-(4-chlorophenyl)-3-methyl-triazol-4-yl]methyl]-5-[3-(2,2-difluoro-ethoxy)azetidin-1-yl]pyridazin-3-one] | 45 | 76 | 1.76
COc1ccc(-c2cnn(Cc3c(-c4ccc(Cl)cc4F)nnn3C)c(=O)c2)cc1 [Example 61, 2-((5-(4-chloro-2-fluoro-phenyl)-3-methyl-triazol-4-yl)methyl)-5-(4-methoxyphenyl)pyridazin-3-one] | 2.6 | 52 | 1.52
COc1ccc(-c2cnn(Cc3c(-c4ccc(Cl)cc4F)nnn3C)c(=O)c2)cn1 [Example 62, 2-((5-(4-chloro-2-fluoro-phenyl)-3-methyl-triazol-4-yl)methyl)-5-(6-methoxy-3-pyridyl)pyridazin-3-one] | 8.2 | 50 | 1.5
COc1cc(-c2cnn(Cc3c(-c4ccc(Cl)cc4F)nnn3C)c(=O)c2)ccn1 [Example 63, 2-((5-(4-chloro-2-fluoro-phenyl)-3-methyl-triazol-4-yl)methyl)-5-(2-methoxy-4-pyridyl)pyridazin-3-one] | 2.2 | 42 | 1.42
